Entries after “also recorded” stand apart in the source; their conditions may differ.
What was measured:
[1] = system: β-arrestin-dependent ERK1/2 activation downstream of β2AR; assay: Carvedilol-stimulated ERK1/2 phosphorylation in β2AR HEK293 cells; type: cell-based; settings: 30 μM; carvedilol 10 μM, 5 min
Description: To evaluate the effect of small-molecule modulators on β-arrestin-dependent ERK1/2 signalling, HEK293 cells stably expressing β2AR were serum-starved for 6 h (refs. [34],[75]), then pretreated with β-arrestin modulators (30 μM) or vehicle for 20 min at 37 °C. Cells were subsequently stimulated with carvedilol (10 μM, 5 min), a β-arrestin-biased agonist known to promote ERK1/2 phosphorylation via β-arrestin scaffolding of RAF–MEK–ERK signalling components. Cells were lysed, sonicated (15 s), and centrifuged at 14,000g for 15 min at 4 °C. Equal amounts of total protein were resolved by SDS–PAGE on 4–20% Tris-Glycine gels (Thermo Fisher Scientific), transferred to nitrocellulose or PVDF membranes, and immunoblotted with anti–phospho-ERK1/2 (1:2,000; Cell Signaling) and total ERK1/2 (1:10,000; Millipore Sigma). HRP-conjugated secondary antibodies were used for detection. Protein bands were visualized using Pierce SuperSignal West Pico ECL substrate (Thermo Fisher Scientific), imaged on a ChemiDoc XRS system (Bio-Rad) and quantified by densitometry using ImageLab (Bio-Rad). Data were analysed using GraphPad Prism.

Gαi = assay: ITC binding to purified Gαi
Description: ITC measurements were performed on a MicroCal iTC200 system at 25 °C. Prior to ITC experiments, all proteins (βARR1, βARR2 or βARR1 mutants) were extensively dialysed against 20 mM HEPES (pH 7.4), 100 mM NaCl, and 3 μM TCEP. Protein concentrations were determined by spectrophotometry at 280 nm, using extinction coefficients calculated from each protein sequence via the ProtParam program. The dialysis buffer was used to dilute DMSO stock solutions of β-arrestin small-molecule modulators to their final concentrations for measurements. For each ITC experiment, β-arrestin modulators (Cmpd-5 at 350 μM, Cmpd-46 at 450 μM, and Cmpd-64 at 450 μM) were loaded into the syringe and titrated into the calorimetric cell containing βARR1, βARR1 mutants or βARR2 (at about 30–40 μM, depending on the protein and experiment). Additional ITC experiments were also performed using purified GST-fused Gα subunits (Gαs, Gαq and Gαi; about 30 μM) and Gαiβγ heterotrimer (about 30 μM). Gα subunits were prepared in the same buffer (20 mM HEPES, pH 7.4, 100 mM NaCl, 3 μM TCEP), whereas the Gαiβγ heterotrimer was maintained in buffer supplemented with 0.05% DDM and 10 μM GDP, with matched DMSO carrier conditions. Modulators (300 μM) or corresponding DMSO controls were loaded and titrated as described above. The reference cell was filled with distilled water. In all experiments, the titration sequence typically consisted of an initial 0.4 μl injection, followed by 19 injections of 2 μl each, with a 180-s interval between injections to allow thermal power to return to baseline. During the experiment, the reference power was set to 7 μcal s^−1, and the sample cell was stirred continuously at 750 rpm. […] Data were analysed and fit using a one-site independent binding model to obtain the equilibrium dissociation constant, Kd (from the association constant Ka = 1/Kd), stoichiometry (N), and thermodynamic parameters including enthalpy (ΔH) and entropy (−TΔS) of binding. Data were analysed using MicroCal PEAQ-ITC analysis software (v1.1.0.1262).

Row | SMILES | effect on β-arrestin-dependent ERK1/2 activation [1] | binding to Gαi (Gαi)
1 | C=C1C(=O)[C@]23[C@H](O)[C@H]1CC[C@H]2[C@@]12CO[C@]3(O)[C@@H](O)[C@@H]1C(C)(C)CC[C@@H]2O [Cmpd-5, (1S,4aR,5S,6S,6aR,9S,11aS,11bS,14R)-1,5,6,14-tetrahydroxy−4,4-dimethyl-8-methylenedecahydro-1H-6,11b-(epoxymethano)-6a,9-methanocyclohepta[a]naphthalen-7(8H)-one] | significantly attenuated; also recorded: attenuate | no measurable affinity
2 | C=C1C(=O)C2=CC1CCC(=O)C1(C)CCC(OCC)C(C)(C)C1CC2O (stereo not drawn) [Cmpd-46, (Z)-3-ethoxy-6-hydroxy-4,4,13a-trimethyl-9-methylene-1,2,3,4,4a,5,6,9,10,11,12,13a-dodecahydro-7,10-(metheno)benzo[11]annulene-8,13-dione] | significantly attenuated; also recorded: attenuate | no measurable affinity
3 | C=C1C(=O)OC2CC3(C)OC3CCC(C)=CC(OC(C)=O)C12 (stereo not drawn) [Cmpd-64, (Z)-4,10a-dimethyl-7-methylene-8-oxo-1a,2,3,6,6a,7,8,9a,10,10a decahydrooxireno[2’,3’:8,9]cyclodeca[1,2-b]furan-6-yl acetate] | significantly attenuated; also recorded: attenuate | very weak binding

Reference: article PMC13489962, “Small-molecule modulation of β-arrestins” (Nature, 2026)
